We go through ten cell lines from the supplement of paper PMC10307832.

What all share (assay): relative viability (nuclei count vs DMSO), 5 days (fraction); higher = more cells survive
Compound in the test “BI-2536 + Pemetrexed”: CC[C@@H]1C(=O)N(C)c2cnc(Nc3ccc(C(=O)NC4CCN(C)CC4)cc3OC)nc2N1C1CCCC1 [BI-2536] + Nc1nc2[nH]cc(CCc3ccc(C(=O)N[C@@H](CCC(=O)O)C(=O)O)cc3)c2c(=O)[nH]1 [Pemetrexed] (partner 0.2 µM)
The method, boiled down: (§1)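 Lung cancer cell lines were pin-tool dosed in 1536-well plates on the day after seeding, with either a lone drug or a fixed anchor-drug dose plus five library-drug doses (not always all listed) in √10 steps. Nuclei were counted on 4× images after 5 days. Relative viability is the ratio of treated-well to vehicle-well nuclei counts, with each value a median of duplicate plates.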

Compound in test [1]: CC1CC(=O)N(C2=CN=C(N=C2N1C3CCCC3)NC4=C(C=C(C=C4)C(=O)NC5CCN(CC5)C)OC)C [NPK76-II-72-1] + Cc1nc(Nc2ncc(C(=O)Nc3c(C)cccc3Cl)s2)cc(N2CCN(CCO)CC2)n1 [Dasatinib] (partner 0.075 µM)
The method, boiled down:
as §1

Compound in the test “BI-2536 + Tozasertib”: CC[C@@H]1C(=O)N(C)c2cnc(Nc3ccc(C(=O)NC4CCN(C)CC4)cc3OC)nc2N1C1CCCC1 [BI-2536] + Cc1cc(Nc2cc(N3CCN(C)CC3)nc(Sc3ccc(NC(=O)C4CC4)cc3)n2)n[nH]1 [Tozasertib] (partner 0.1 µM)
The method, boiled down: as §1

Compound in the test “BI-2536 + Bortezomib”: CC[C@@H]1C(=O)N(C)c2cnc(Nc3ccc(C(=O)NC4CCN(C)CC4)cc3OC)nc2N1C1CCCC1 [BI-2536] + CC(C)C[C@H](NC(=O)[C@H](Cc1ccccc1)NC(=O)c1cnccn1)B(O)O [Bortezomib] (partner 0.002 µM)
The method, boiled down:
as §1

Take HCC-366: the relative viability with BI-2536 + Pemetrexed (first compound 0.01 µM) stood at 0.193; with BI-2536 + Pemetrexed (first compound 0.03162 µM), 0.17; with BI-2536 + Pemetrexed (first compound 0.1 µM), 0.157; with BI-2536 + Pemetrexed (first compound 0.3162 µM), 0.024; with BI-2536 + Pemetrexed (first compound 1 µM), 0.0288; in test [1] (first compound 0.01 µM), 0.593. In addition, the relative viability in test [1] (first compound 0.03162 µM) was determined as 0.633; in test [1] (first compound 0.1 µM), 0.638; in test [1] (first compound 0.3162 µM), 0.606; in test [1] (first compound 1 µM), 0.635; with BI-2536 + Tozasertib (first compound 0.01 µM) it was 0.119; in the test with BI-2536 + Tozasertib (first compound 0.03162 µM), 0.169. In addition, the relative viability with BI-2536 + Tozasertib (first compound 0.1 µM) amounted to 0.115; with BI-2536 + Tozasertib (first compound 0.3162 µM), 0.038; in the test with BI-2536 + Tozasertib (first compound 1 µM), 0.0412; with BI-2536 + Bortezomib (first compound 0.01 µM) it was 1.09; in the test with BI-2536 + Bortezomib (first compound 0.03162 µM), 1.1; in the test with BI-2536 + Bortezomib (first compound 0.1 µM), 0.155. Moreover, the figures for the relative viability in the test with BI-2536 + Bortezomib (first compound 0.3162 µM) and in the test with BI-2536 + Bortezomib (first compound 1 µM) were 0.0158 and 0.0163, respectively.

For HCC-827, the relative viability turned out to be 0.232 in the test with BI-2536 + Pemetrexed (first compound 0.01 µM); 0.253 with BI-2536 + Pemetrexed (first compound 0.03162 µM); 0.224 with BI-2536 + Pemetrexed (first compound 0.1 µM); 0.227 with BI-2536 + Pemetrexed (first compound 0.3162 µM); 0.187 with BI-2536 + Pemetrexed (first compound 1 µM); 0.252 in test [1] (first compound 0.01 µM). In addition, the relative viability in test [1] (first compound 0.03162 µM) is 0.319; in test [1] (first compound 0.1 µM) it was 0.435; in test [1] (first compound 0.3162 µM), 0.388; in test [1] (first compound 1 µM), 0.37; with BI-2536 + Tozasertib (first compound 0.01 µM), 0.45; with BI-2536 + Tozasertib (first compound 0.03162 µM), 0.414. Besides, the relative viability turned out to be 0.428 with BI-2536 + Tozasertib (first compound 0.1 µM); 0.376 with BI-2536 + Tozasertib (first compound 0.3162 µM); 0.308 in the test with BI-2536 + Tozasertib (first compound 1 µM); 1.07 with BI-2536 + Bortezomib (first compound 0.01 µM); 0.971 in the test with BI-2536 + Bortezomib (first compound 0.03162 µM); 0.974 with BI-2536 + Bortezomib (first compound 0.1 µM). In addition, the relative viability was 0.638 with BI-2536 + Bortezomib (first compound 0.3162 µM) and 0.377 with BI-2536 + Bortezomib (first compound 1 µM).

Take HOP-62: the relative viability with BI-2536 + Pemetrexed (first compound 0.01 µM) is 0.394; with BI-2536 + Pemetrexed (first compound 0.03162 µM), 0.29; in the test with BI-2536 + Pemetrexed (first compound 0.1 µM) it was 0.225; in the test with BI-2536 + Pemetrexed (first compound 0.3162 µM), 0.109; with BI-2536 + Pemetrexed (first compound 1 µM), 0.151; in test [1] (first compound 0.01 µM) it was 0.585. In addition, the relative viability was 0.653 in test [1] (first compound 0.03162 µM); 0.633 in test [1] (first compound 0.1 µM); 0.672 in test [1] (first compound 0.3162 µM); 0.64 in test [1] (first compound 1 µM); 0.337 with BI-2536 + Tozasertib (first compound 0.01 µM); 0.424 in the test with BI-2536 + Tozasertib (first compound 0.03162 µM). The relative viability with BI-2536 + Tozasertib (first compound 0.1 µM) came out at 0.29; with BI-2536 + Tozasertib (first compound 0.3162 µM), 0.204; in the test with BI-2536 + Tozasertib (first compound 1 µM) it was 0.219; in the test with BI-2536 + Bortezomib (first compound 0.01 µM), 0.603; with BI-2536 + Bortezomib (first compound 0.03162 µM), 1.34; with BI-2536 + Bortezomib (first compound 0.1 µM), 0.329. Further, the relative viability turned out to be 0.114 with BI-2536 + Bortezomib (first compound 0.3162 µM) and 0.103 with BI-2536 + Bortezomib (first compound 1 µM).

On to IA-LM, for which the relative viability with BI-2536 + Bortezomib (first compound 0.01 µM) is 0.772; in the test with BI-2536 + Bortezomib (first compound 0.03162 µM) it was 0.623; with BI-2536 + Bortezomib (first compound 0.1 µM), 0.0686; in the test with BI-2536 + Bortezomib (first compound 0.3162 µM) it was 0.0705; with BI-2536 + Bortezomib (first compound 1 µM), 0.0718.

Regarding LC-2-ad, the relative viability with BI-2536 + Pemetrexed (first compound 0.01 µM) was found to be 0.281; in the test with BI-2536 + Pemetrexed (first compound 0.03162 µM) it was 0.234; with BI-2536 + Pemetrexed (first compound 0.1 µM), 0.171; with BI-2536 + Pemetrexed (first compound 0.3162 µM), 0.165; with BI-2536 + Pemetrexed (first compound 1 µM), 0.177; in test [1] (first compound 0.01 µM), 0.569. Further, the relative viability in test [1] (first compound 0.03162 µM) stood at 0.862; in test [1] (first compound 0.1 µM) it was 0.485; in test [1] (first compound 0.3162 µM), 0.438; in test [1] (first compound 1 µM), 0.791; with BI-2536 + Tozasertib (first compound 0.01 µM), 0.412; with BI-2536 + Tozasertib (first compound 0.03162 µM), 0.278. In addition, the relative viability in the test with BI-2536 + Tozasertib (first compound 0.1 µM) is 0.279; with BI-2536 + Tozasertib (first compound 0.3162 µM) it was 0.318; with BI-2536 + Tozasertib (first compound 1 µM) it was 0.383; in the test with BI-2536 + Bortezomib (first compound 0.01 µM) it was 1.06; with BI-2536 + Bortezomib (first compound 0.03162 µM) it was 0.923; with BI-2536 + Bortezomib (first compound 0.1 µM) it was 0.112. Besides, the relative viability stood at 0.124 in the test with BI-2536 + Bortezomib (first compound 0.3162 µM) and 0.104 with BI-2536 + Bortezomib (first compound 1 µM).

Take LK-2: the relative viability with BI-2536 + Pemetrexed (first compound 0.01 µM) was determined as 0.249; with BI-2536 + Pemetrexed (first compound 0.03162 µM), 0.249; in the test with BI-2536 + Pemetrexed (first compound 0.1 µM), 0.0925; in the test with BI-2536 + Pemetrexed (first compound 0.3162 µM) it was 0.0896; with BI-2536 + Pemetrexed (first compound 1 µM), 0.1; in test [1] (first compound 0.01 µM), 0.299. Further, the relative viability turned out to be 0.275 in test [1] (first compound 0.03162 µM); 0.322 in test [1] (first compound 0.1 µM); 0.233 in test [1] (first compound 0.3162 µM); 0.244 in test [1] (first compound 1 µM); 0.152 with BI-2536 + Tozasertib (first compound 0.01 µM); 0.151 with BI-2536 + Tozasertib (first compound 0.03162 µM). In addition, the relative viability stood at 0.173 in the test with BI-2536 + Tozasertib (first compound 0.1 µM), 0.187 in the test with BI-2536 + Tozasertib (first compound 0.3162 µM) and 0.185 with BI-2536 + Tozasertib (first compound 1 µM).

For NCI-H358, the relative viability is 0.191 with BI-2536 + Pemetrexed (first compound 0.01 µM); 0.178 with BI-2536 + Pemetrexed (first compound 0.03162 µM); 0.194 with BI-2536 + Pemetrexed (first compound 0.1 µM); 0.0986 with BI-2536 + Pemetrexed (first compound 0.3162 µM); 0.102 in the test with BI-2536 + Pemetrexed (first compound 1 µM); 0.162 in test [1] (first compound 0.01 µM). Besides, the relative viability in test [1] (first compound 0.03162 µM) is 0.14; in test [1] (first compound 0.1 µM) it was 0.156; in test [1] (first compound 1 µM), 0.149; in the test with BI-2536 + Tozasertib (first compound 0.01 µM) it was 0.113; in the test with BI-2536 + Tozasertib (first compound 0.03162 µM) it was 0.105; with BI-2536 + Tozasertib (first compound 0.1 µM), 0.103. Also, the relative viability in the test with BI-2536 + Tozasertib (first compound 0.3162 µM) is 0.0917; with BI-2536 + Tozasertib (first compound 1 µM), 0.0924.

For NCI-H522, the relative viability stood at 1.1 with BI-2536 + Pemetrexed (first compound 0.01 µM); 0.977 in the test with BI-2536 + Pemetrexed (first compound 0.03162 µM); 1.03 with BI-2536 + Pemetrexed (first compound 0.1 µM); 0.342 in the test with BI-2536 + Pemetrexed (first compound 0.3162 µM); 0.288 with BI-2536 + Pemetrexed (first compound 1 µM); 0.77 in test [1] (first compound 0.01 µM). Moreover, the relative viability in test [1] (first compound 0.03162 µM) stood at 0.887; in test [1] (first compound 0.1 µM), 1.09; in test [1] (first compound 0.3162 µM) it was 0.86; in test [1] (first compound 1 µM), 0.828; with BI-2536 + Tozasertib (first compound 0.01 µM), 0.488; with BI-2536 + Tozasertib (first compound 0.03162 µM), 0.581. For the same cell line, the relative viability with BI-2536 + Tozasertib (first compound 0.1 µM) worked out at 0.634; with BI-2536 + Tozasertib (first compound 0.3162 µM), 0.447; in the test with BI-2536 + Tozasertib (first compound 1 µM), 0.412.

For the cell line NCI-H727, the relative viability is 0.327 in test [1] (first compound 0.01 µM); 0.298 in test [1] (first compound 0.03162 µM); 0.316 in test [1] (first compound 0.1 µM); 0.397 in test [1] (first compound 0.3162 µM); 0.409 in test [1] (first compound 1 µM); 0.646 with BI-2536 + Tozasertib (first compound 0.01 µM). For the same cell line, the relative viability with BI-2536 + Tozasertib (first compound 0.03162 µM) worked out at 0.695; with BI-2536 + Tozasertib (first compound 0.1 µM), 0.672; in the test with BI-2536 + Tozasertib (first compound 0.3162 µM) it was 0.496; in the test with BI-2536 + Tozasertib (first compound 1 µM), 0.392; with BI-2536 + Bortezomib (first compound 0.01 µM), 0.807; in the test with BI-2536 + Bortezomib (first compound 0.03162 µM), 0.833. Moreover, the relative viability with BI-2536 + Bortezomib (first compound 0.1 µM) is 0.656; with BI-2536 + Bortezomib (first compound 0.3162 µM), 0.267; in the test with BI-2536 + Bortezomib (first compound 1 µM), 0.239.

Regarding NCI-H1299, the relative viability in the test with BI-2536 + Bortezomib (first compound 0.01 µM) is 0.985; with BI-2536 + Bortezomib (first compound 0.03162 µM), 1.05; in the test with BI-2536 + Bortezomib (first compound 0.1 µM) it was 0.981; with BI-2536 + Bortezomib (first compound 0.3162 µM) it was 0.419; with BI-2536 + Bortezomib (first compound 1 µM) it was 0.351.
